The record followed here is PubChem BioAssay AID2305 (GlaxoSmithKline (GSK), 2010).

The subject of this experiment is P. falciparum 3D7 growth, pLDH absorbance. Kind of experiment: P. falciparum 3D7 growth inhibition, dose response, strain 3D7 (AID 2305).

For the compound `N=c1n(Cc2ccccc2)c2ccccc2n1CC(O)c1ccc(Cl)c(Cl)c1` (configuration not stated), the IC50 was 830 nM.

The compound `O=[N+]([O-])c1cccc(-c2ccc(C=NNc3cc(N4CCCC4)nc(N4CCCC4)n3)o2)c1` displayed an IC50 of 710 nM.

The compound `Cc1cc(C2CCN(CCCCNC(=O)c3ccc(NC(=O)c4ccc(Cl)cc4)cc3)CC2)c(C)cc1OCc1nccn1C` gave an IC50 of 830 nM.

Consider `CC(C)c1sc(N2CCN(C)CC2)nc1C(=O)NCCc1ccc(Br)cc1`, for which the IC50 stood at 1130 nM.

Consider `CCN(Cc1ccccc1)C1CCN(Cc2cc(Br)ccc2O)CC1`, for which the IC50 came to 820 nM.

The compound `COc1cc(Cl)c(C)cc1-n1cc(C(=O)c2cc(Br)ccc2O)cc(C#N)c1=O` registered an IC50 of 870 nM.

Compound `O=C(NCc1ccccc1)C1Cc2c([nH]c3ccc(Br)cc23)C2(CCN(Cc3ccccc3)CC2)N1` (configuration not stated) displayed an IC50 of 870 nM.

`CN(CCCCCNC(=O)/C=C/c1ccc(Cl)c(Cl)c1)CCCCc1c[nH]c2ccccc12` displayed an IC50 of 1080 nM.

Consider `O=C(NC1CC1)c1cnc(N2CCN(Cc3ccc(Cl)cc3)CC2)c(Cl)c1`, for which the IC50 is 850 nM.

The compound `O=C(/C=C/c1ccc(Cl)c(Cl)c1)NCCCCCN1CCC(CCCNC(=O)Nc2ccc(C(F)(F)F)cc2)CC1` had an IC50 of 870 nM.

In the case of `O=C(/C=C/c1ccc(Cl)c(Cl)c1)NCC(CCCN1CCC(c2c[nH]c3ccccc23)CC1)c1ccccc1` (configuration not stated), the IC50 was found to be 810 nM.

Compound `c1ccc(-n2ncc(CNCc3ccc(-c4ccc(-c5nc6ccccc6[nH]5)s4)cc3)n2)cc1` displayed an IC50 of 1400 nM.

As to `CCN(CC)CCN(Cc1ccc(-c2ccc(C(F)(F)F)cc2)cc1)C(=O)Cn1c(/C=C/c2ccco2)nc(=O)c2ccccc21`, the IC50 is 870 nM.

`c1ccc(CNc2cc(-c3ccccn3)nc(-c3ccccn3)n2)cc1` yielded an IC50 of 300 nM.

`CCSc1nc2sc3c(c2c(=O)n1-c1ccccc1)CCN(C)C3` returned an IC50 of 460 nM.

`CC(C)[C@@H](C(=O)NCc1cccc(C(F)(F)F)c1)N1C(=O)CCC1C(=O)Nc1ccc([N+](=O)[O-])cc1` (some centres not stated): the IC50 was found to be 930 nM.

The compound `Cc1cccc(C)c1OC(=O)CSc1nnc(-c2ccccc2O)o1` displayed an IC50 of 880 nM.

`CC(=O)Nc1nc(-c2ccccc2)[nH]c1C(N)=O` had an IC50 of 250 nM.

In the case of `O=C(c1cccc(-c2cccc(-c3nc4ccccc4[nH]3)c2)c1)N1CCCCC1CN1CCC(O)C1` (configuration not stated), the IC50 was determined as 730 nM.

`COc1ccc2cc(-c3nc(-c4c(Cl)cccc4Cl)[nH]c3-c3ccnc(NCCC4CCCN4C)c3)ccc2c1` (configuration not stated) displayed an IC50 of 1030 nM.

For the compound `COc1ccc2nccc([C@@H](O)CN3CCC(NC(=O)c4nc(Cl)c(Cl)c(N)c4Cl)CC3)c2c1`, the IC50 stood at 1300 nM.

The compound `O=C(NCCCN1CCOCC1)c1cccc(Nc2nccc(Nc3ccc(Oc4ccccc4)cc3)n2)c1` yielded an IC50 of 770 nM.

As to `O=C(NCCN1CCOCC1)c1ccc(N2CCC(Oc3ccc4ccccc4c3)CC2)nc1`, the IC50 amounted to 760 nM.

Take `O=C(Nc1ccc(-c2ccccc2)cc1)Nc1cccc(Cn2nc(Cl)c(N3CCNCC3)cc2=O)c1`: the IC50 was 370 nM.

Consider `Cc1ccc2c(c1)NC[C@@]21CCN(C[C@@H](O)C2CCN(c3ccnc(Cl)c3)CC2)C[C@@H]1C`, for which the IC50 is 940 nM.

`O=C(Nc1ccc(C(=O)OC[C@@H]2CCCN3CCCC[C@H]23)cc1)c1ccc([N+](=O)[O-])cc1`: the IC50 was found to be 720 nM.

Compound `FC(F)(F)c1ccc2nc(-c3ccc(-c4ccc(CNCCN5CCNCC5)cc4)cc3)[nH]c2c1` showed an IC50 of 1120 nM.

Compound `Clc1ccc(-c2ccc(CNCCCN3CCCC3)cc2)cc1` yielded an IC50 of 1060 nM.

Turning to `COc1ccc(NC(=O)[C@H](Cc2ccccc2)Nc2cc(C)nc(NCCc3cccnc3)n2)cc1`, the IC50 is 760 nM.

The compound `Cc1[nH]c(C)c(-c2ccc(OCCSc3ccncc3)cc2)c(=O)c1Br` yielded an IC50 of 390 nM.

In the case of `COCCOCCOCCn1ccc2c3c(N)nc(N)nc3ccc21`, the IC50 was 260 nM.

In turn, `CC(C)(C)NC(=O)COC(=O)c1c2c(nc3ccccc13)C(=Cc1ccc3c(c1)OCO3)CCC2` registered an IC50 of 740 nM.

Consider `Cc1cc(N2Cc3ccccc3C2)nc(Nc2cccc(C#N)c2)n1`, for which the IC50 was 170 nM.

`CCCN(CC1CC1)c1ncc(-c2cccc(CNCCC3CCCN3C)c2)cn1` (configuration not stated): the IC50 was found to be 750 nM.

Take `Cc1ccc2c(Cl)c(C(=O)N3CC(C)OC(C)C3)sc2c1` (configuration not stated): the IC50 amounted to 180 nM.

`COc1ccc2ncc(F)c([C@@H](O)CN3CCC(NCc4ccc5c(c4)NCCS5)CC3)c2n1` registered an IC50 of 500 nM.

`C[C@@H]1CN(c2cnn(C/C=C/c3ccc(NC(=O)c4ccc5nonc5c4)cc3)c(=O)c2Cl)C[C@H](C)N1` came in with an IC50 of 790 nM.

`CN1CCN(CCCN(Cc2cccc(-c3cccc(CNC4CCCC4)c3)c2)C(=O)CCC2CCCC2)CC1` yielded an IC50 of 680 nM.

On to `CCOc1cc(C(=O)Nc2ccc3nc(N(CC)CC)cc(C)c3c2)cc(OCC)c1OCC`, for which the IC50 stood at 700 nM.

Take `O=C(NCCNc1ccnc(Nc2ccc(F)cc2)n1)c1cc2ccccc2s1`: the IC50 was determined as 750 nM.

In the case of `Cc1cc(NC2CCCC2)nc(Nc2ccccc2)n1`, the IC50 worked out at 990 nM.

Turning to `COc1ccc2ccccc2c1CCCCN1CCN(CC(c2ccc(F)cc2)N2CCN(C(C)C)CC2)CC1` (configuration not stated), the IC50 came to 810 nM.

In turn, `CN(C)C(=S)N=Nc1c(O)[nH]c2ccccc12` registered an IC50 of 1050 nM.

Consider `CCCCCCC(C)c1cc(O)c2c(c1)OC(C)(C)C=C2c1ccncc1` (configuration not stated), for which the IC50 came out at 730 nM.

Take `O=C(NCC1CC1)C1CCN(C(c2ccccc2)c2nc3ccccc3s2)CC1` (configuration not stated): the IC50 is 1020 nM.

In turn, `CNCCNC(=O)C1Cc2c([nH]c3c(C)cccc23)C(c2ccc(Cl)c(Cl)c2)N1` (configuration not stated) registered an IC50 of 720 nM.

Turning to `CN(C)CCNc1cc(-c2cccnc2)nc(-c2ccncc2)n1`, the IC50 is 600 nM.

Compound `O=C(/C=C/c1ccc(Cl)c(Cl)c1)NCCCCCN1CC[C@H](NC(=O)c2sc3ccccc3c2Cl)C1` came in with an IC50 of 810 nM.

As to `COc1ccc(CNC(=O)NC2CCN(c3ccnc(Nc4ccc(F)cc4)n3)CC2)cc1`, the IC50 was 1050 nM.

The compound `Cc1ccccc1C1CCN(c2ccc(C(=O)Nc3ccccc3)cn2)CC1` came in with an IC50 of 330 nM.

Compound `O=C(Nc1cccc(F)c1)N1CCC(NS(=O)(=O)c2ccc(Br)cc2)CC1` came in with an IC50 of 980 nM.

As for `CN1CCC(N2CCN(CCOc3cc(NC(=O)/C=C/c4ccccc4Cl)ccc3Br)CC2)CC1`, the IC50 was 360 nM.

In turn, `Cc1cc2cc(CNCCc3ccccc3Br)ccc2nc1N` showed an IC50 of 240 nM.

Regarding `Nc1nc(N)c2c(Cc3ccc(Br)cc3)cccc2n1`, the IC50 turned out to be 770 nM.

In the case of `NC(=O)c1cccc(Nc2nccc(Nc3ccc(Oc4c(Cl)cccc4Cl)c(Cl)c3)n2)c1`, the IC50 stood at 870 nM.

`COc1ccc2nccc([C@@H](O)CN3CCC(NCc4ccc5nnsc5c4)CC3)c2c1` had an IC50 of 710 nM.

With `Cc1cccc2[nH]c(-c3ccc(-c4cccc(CN5CCN(c6ccc(C#N)cn6)CC5)c4)s3)nc12`, the IC50 stood at 1420 nM.

As to `CC(C)CC(=O)N(Cc1ccc(-c2ccc(CNC3Cc4ccccc4C3)cc2)cc1)C1CCNCC1`, the IC50 came out at 1170 nM.

As to `N#Cc1cccc(NC(=O)NC2CCN(CCCCCNC(=O)/C=C/c3ccc(Cl)c(Cl)c3)CC2)c1`, the IC50 is 710 nM.

On to `Nc1c(-c2ccc(C(=O)NCCNCc3ccccc3)cc2)cnn1-c1ccc(C(F)(F)F)cc1`, for which the IC50 was found to be 1160 nM.

Regarding `COc1ccc(C(=O)N[C@@H](CC(C)C)C(=O)N[C@H](/C=N/NC(=O)c2ccccc2)CCc2ccccc2)cc1OCCN1CCOCC1`, the IC50 was 170 nM.

Turning to `N#Cc1ccc(C(=O)NC2CCN(CCCCCNC(=O)/C=C/c3ccc(Cl)c(Cl)c3)CC2)cc1`, the IC50 is 840 nM.

In the case of `C=Cc1c(C2CCN(CCCCNC(=O)c3ccc(-c4ccc(C#N)cc4)cc3)CC2)ccc2c1CCCC2`, the IC50 was 880 nM.

The compound `COc1ccc(C2C(C(=O)OC3CCCC3)=C(C)NC3=C2C(=O)CCC3)cc1Br` (configuration not stated) came in with an IC50 of 590 nM.

Regarding `COc1cccc(-c2cnc(N)c(-c3nc4cc(Cl)c(F)cc4[nH]3)c2)c1`, the IC50 came to 540 nM.

`O=C(N[C@@H](Cc1ccccc1)[C@H](O)CNC1CCOCC1)c1cc(C2CCCC2)cc(N2CCCCS2(=O)=O)c1` had an IC50 of 200 nM.

On to `CCOC(=O)c1ccc(NC(=O)NC2CCN(CCCCCNC(=O)/C=C/c3ccc(Cl)c(Cl)c3)C2)cc1` (configuration not stated), for which the IC50 turned out to be 490 nM.

Turning to `O=C(Nc1ccnc2ccccc12)NC1CCN(Cc2ccccc2)CC1`, the IC50 was 990 nM.

`Clc1cc(Br)ccc1-c1ccc(CNCC2CCNCC2)o1` came in with an IC50 of 1510 nM.

`COc1ccc(NC(=O)c2ccc(Br)c(C)c2)cc1N1CCN(CCCCc2ccccc2)CC1`: the IC50 came to 820 nM.

Regarding `COc1ccc(OC)c(C=CC(=O)NC2CCC(CN3CCC(c4c[nH]c5ccccc45)CC3)CC2)c1` (configuration not stated), the IC50 amounted to 650 nM.

For the compound `O=c1[nH]c(Cc2ccccc2)nc2ccc(Cl)cc12`, the IC50 was determined as 880 nM.

`O=C(Nc1ccc(-c2nc3ccccc3[nH]2)cc1)c1cncc(Br)c1` showed an IC50 of 810 nM.

The compound `CCOC(=O)c1cc(C(=O)NCCCCN2CCC(c3cn(C)c4ccccc34)CC2)ccc1-c1ccc(C(F)(F)F)cc1` yielded an IC50 of 1200 nM.

For the compound `NC1CCN(Cc2ccc(-c3ccc(-c4nc5ccc(F)cc5[nH]4)cc3)cc2)C1` (configuration not stated), the IC50 was 180 nM.

Regarding `C[C@@H](Oc1cc(-n2cnc3ccc(NC(=O)NC(C)(C)C)cc32)sc1C(N)=O)c1ccccc1Cl`, the IC50 was 330 nM.

In turn, `O=S(=O)(Nc1ccc(CCN2CCC(N3CCCCC3)CC2)cc1)c1cccc(C(F)(F)F)c1` displayed an IC50 of 700 nM.

The compound `Cc1ccc2c(=O)c3cc(C)ccc3[nH]c2c1` had an IC50 of 420 nM.

In turn, `Clc1cc(Nc2ncnc3sc(C#C[C@H]4CCCN4)cc23)ccc1OCc1cccnc1Cl` gave an IC50 of 570 nM.

Turning to `O=C(NC1CCCc2ccccc21)C1CCCN(C(=O)c2ccc(O)c(-c3ccc(Cl)c(Cl)c3)c2)C1` (configuration not stated), the IC50 was found to be 1140 nM.

`COc1cccc2cc(C(=O)N[C@@H](CC(C)C)C(=O)N[C@H](/C=N/NC(=O)OC(C)(C)C)CC(C)C)oc12` had an IC50 of 900 nM.

`COc1cc2nc(NCc3nc4ccccc4[nH]3)nc(N)c2cc1OC` returned an IC50 of 890 nM.

As for `CN(C)CCCN(C)C(=O)c1cc2cc(-c3ccccc3)ccc2n1S(=O)(=O)c1ccccc1`, the IC50 was found to be 460 nM.

Regarding `Nc1nc(Cc2ccc(Cl)cc2)nc(Cc2ccc(Cl)cc2)n1`, the half-inhibitory concentration (IC50) is 930 nM.

Turning to `CCCCN(CCCC)C(=N)c1cccc2c1CCCC2`, the IC50 is 1560 nM.

Regarding `Cc1cccc2[nH]c(-c3cccc(-c4ccc(CN5CCCC5CN)cc4)c3)nc12` (configuration not stated), the IC50 amounted to 760 nM.

`O=C(O)/C=C/c1cccc(F)c1F`: the IC50 came out at 100 nM.
